Data set [1] can be described thus: Dynamic light scattering (DLS) of MGs. It is filed as physicochemical. Conditions: At 3.2 mg/mL THF; for Diameter (nm): injected in nanopure water. On the procedure:
The self-assembly of the glycoliposomes into vesicles and liposomes involved the injection method of their solution in a water miscible solvent such as ethanol or tetrahydrofuran (THF) into water or buffer. […] The resulting assemblies were first analyzed by dynamic light scattering (DLS) for size, polydispersity (PDI), and stability in time. For liposome size determination, solutions of the glycolipids (3.5 mg) in THF (1.1 mL) were then diluted in distilled water (2.2 mL) to provide final concentrations of 1.06 mg/mL. Particle size distributions were measured in water using a Zetasizer® Nano S90 from Malvern Instruments (UK) equipped with 4 mW He—Ne laser 633 nm and avalanche photodiode positioned at 90° to the beam and temperature-controlled cuvette holder. Instrument parameters were determined automatically along with measurement times. Experiments were performed in triplicate at 25° C.
Different solutions of 12a (C8), 12c (C12), 12d (C14), 12e (C16), 22c (C12), 22d (C14), 22e (C16) in THF and EtOH were prepared from 0.5 mg/mL to 10 mg/mL. 100 μL of these preparations were injected in a constant 2 mL of nanopure water followed by 5 seconds of vortexing, and analyzed by DLS, to determine the diameter size of the MGs, as shown in Table 2.

The nature of data set [2]: In vivo Dynantin distribution after intranasal treatment. Conditions: intranasal Dynantin 2 μg, 20 minutes.
Data set [3] relates to HeLa cells. Put plainly: Nile Red cellular uptake, HeLa. It counts as cell-based, human. On the procedure: Murine dendritic cells JAWSII (ATCC® CRL-11904™) were grown in RPMI-1640 medium (HyClone, Logan UT) supplemented with 8% FBS (Gibco, Grand Island NY), 100 units/ml penicillin/streptomycin (HyClone, Logan UT) and 5 ng/mL of GM-CSF (Invitrogen, Frederick MD) at 37° C. and 5% CO2. Once confluent, cells were collected using 0.25% Trypsin-EDTA (Gibco, Grand Island NY). Murine macrophage cells J774A.1 (ATCC® TIB-67™) and human malignant cells HeLa (ATCC® CCL-2™; Cederlane, Burlington, ON, Canada) were grown […] (DMEM) high glucose (HyClone, Logan, UT) supplemented with 10% FBS and 100 units/ml penicillin/streptomycin at 37° C. and 5% CO2. Once confluent, cells were collected using a cell scraper. Viability was assessed prior to experiments by Trypan Blue (Gibco, Grand Island NY) exclusion where the viability was >90%. Cells were seeded at 3×10^5 cells in 300 μL in a 96 multi-well plate and left untreated or were treated with 10 μg/mL of empty liposomes MG12d or MGC12, 1 μg/mL of Nile Red (Sigma, St-Louis MO), or 1 μg/mL of Nile Red encapsulated in 10 μg/mL of MG12d or MGC12. […] Mean fluorescence intensity was analysed using the Cytomics FC-500 flow cytometer (Beckman Coulter, Fullerton CA) using the FL3 channel where […] were measured. Data was analyzed using the CXP Analysis Software. […]

The source of these data is patent publication US12691069B2, “Synthetic glycolipids and glycoliposome compositions : suitable for cargo delivery to the central nervous system” (KORANEX CAPITAL, priority 2022, dated 2026).

Marks after values point to notes of the source that are not given here.

For “6-bis(tetradecyloxy)benzamido-N-hexyl α-D-mannopyranoside [12d]”, in data set [1], the “Polydispersity Index (PDI)” value turned out to be 0.040 and the “Diameter (nm)” value is reported as 286 ^a nm.
Turning to `CCCCCCCCOc1ccc(C(=O)NCCCCCCO[C@H]2O[C@H](CO)[C@@H](O)[C@H](O)[C@@H]2O)cc1OCCCCCCCC` [12a, 6-Bis(octacyloxy)benzamido-N-hexyl α-D-mannopyranoside], in data set [1], the “Polydispersity Index (PDI)” value worked out at 0.178 and the “Diameter (nm)” value was 300^a nm.
With `CCCCCCCCCCCCOc1ccc(C(=O)NCCCCCCO[C@H]2O[C@H](CO)[C@@H](O)[C@H](O)[C@@H]2O)cc1OCCCCCCCCCCCC` [12c, 6-Bis(dodecyloxy)benzamido-N-hexyl α-D-mannopyranoside], in data set [1], the “Polydispersity Index (PDI)” value stood at 0.202 and the “Diameter (nm)” value is on record as 267 ^a nm.
In the case of `CC[C@H](C)[C@H](NC(=O)[C@H](CCCN=C(N)N)NC(=O)[C@H](CCCN=C(N)N)NC(=O)[C@H](CC(C)C)NC(=O)[C@H](Cc1ccccc1)NC(=O)CNC(=O)CNC(=O)[C@@H](C)Cc1c(C)cc(O)cc1C)C(=O)N[C@@H](CCCN=C(N)N)C(=O)N1CCC[C@H]1C(=O)N[C@@H](CCCCN)C(N)=O` [Dynantin], in data set [2] (brain), the “Brain (%), percentage of total dose recovered” value came out at 8.15 ± 3.06% and the “Dynantin levels in the brain” value is recorded as “detectable levels”. In data set [2] (lung), the “Lung (%), percentage of total dose recovered” value is recorded as 4.93 ± 0.89%. For the same compound, the “Sera (%), percentage of total dose recovered” value in data set [2] (sera) worked out at 21.66 ± 3.99%.
As to `CCN(CC)c1ccc2nc3c4ccccc4c(=O)cc-3oc2c1` [Nile Red], the “Nile Red uptake / staining” value in data set [3] is on record as “no staining”.
